Experimental data taken from ChEMBL document CHEMBL2417474, “Synthesis, antiproliferative and anti-inflammatory activities of some novel 6-aryl-2-(p-(methanesulfonyl)phenyl)-4,5-dihydropyridazi-3(2H)-ones” (Eur J Med Chem, 2013).

Key:
[1] = test system: NCI-H460; experiment: Growth inhibition of human NCI-H460 cells assessed as cell growth at 10 uM after 48 hrs by sulforhodamine B assay; assay type: functional; conditions: NCI-H460, 48 h, read-out: Activity
[2] = test system: HCT-15; experiment: Growth inhibition of human HCT15 cells assessed as cell growth at 10 uM after 48 hrs by sulforhodamine B assay; assay type: functional; conditions: HCT-15, 48 h, read-out: Activity

Compound | growth at 10 µM [1] | growth at 10 µM [2]
Cc1cc(O)ccc1C1=NN(c2ccc(S(C)(=O)=O)cc2)C(=O)CC1 | 73.1% | 44.9%
CCc1ccc(C2=NN(c3ccc(S(C)(=O)=O)cc3)C(=O)CC2)cc1 | 10.6% | 22.1%
